Results: patent publication US9273041B2, “Compounds for the treatment of dyslipidemia and related diseases” (Cadila Healthcare Limited, priority 2012, dated 2016)

Target: PCSK9 (Homo sapiens, UniProt Q8NBP7)
Assay: PCSK9-LDLR in vitro binding assay (solid phase, ELISA readout)
Conditions: read-out: % Inhibition PCSK 9; for inhibition at 10 µM: test compound concentration 10 μM; for inhibition at 100 µM: test compound concentration 100 μM; for inhibition at 1 µM: test compound concentration 1 μM
Method: The PCSK9-LDLR in vitro binding Assay is a quantitative solid phase binding assay between PCSK9 and recombinant LDLR. Plates were pre-coated with a recombinant LDLR-AB domain, which binds PCSK9. Test compound at different concentration was added to the PCSK9 and added to LDLR immobilized on the wells. The amount of bound PCSK9 is measured by binding it with biotinylated anti-His-tag monoclonal antibody, followed by binding with horseradish peroxidase conjugated streptavidin substrate. The color was quantified by ELISA reader at […] which reflects the relative amount of PCSK9 that binds to LDLR in presence and absence of the inhibitor. EC50 values were calculated by nonlinear regression analysis using graph pad prism software. Each concentration point represents values in duplicates.

Sequence of PCSK9 (Q8NBP7 153-692): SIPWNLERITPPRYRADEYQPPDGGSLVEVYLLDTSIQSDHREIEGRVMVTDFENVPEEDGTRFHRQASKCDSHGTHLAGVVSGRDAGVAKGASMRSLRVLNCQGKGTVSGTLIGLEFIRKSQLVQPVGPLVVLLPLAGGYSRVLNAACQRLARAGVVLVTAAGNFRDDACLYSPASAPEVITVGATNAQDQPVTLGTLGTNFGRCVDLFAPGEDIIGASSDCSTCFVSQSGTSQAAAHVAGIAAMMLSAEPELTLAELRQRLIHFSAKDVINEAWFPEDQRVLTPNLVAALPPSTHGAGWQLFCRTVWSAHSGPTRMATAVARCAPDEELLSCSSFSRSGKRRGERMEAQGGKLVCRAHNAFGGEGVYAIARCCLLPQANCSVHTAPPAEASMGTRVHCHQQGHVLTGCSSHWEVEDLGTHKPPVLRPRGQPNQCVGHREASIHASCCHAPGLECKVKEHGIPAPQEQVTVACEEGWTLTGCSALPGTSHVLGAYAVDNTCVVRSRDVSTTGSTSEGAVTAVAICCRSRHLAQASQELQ
Sequence of PCSK9 (Q8NBP7 31-152 partner limits assumed): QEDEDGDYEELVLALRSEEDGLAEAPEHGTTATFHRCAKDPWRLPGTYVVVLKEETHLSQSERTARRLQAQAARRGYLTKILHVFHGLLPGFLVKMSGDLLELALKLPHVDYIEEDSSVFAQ

| Structure (SMILES) | inhibition at 10 µM [%] | inhibition at 100 µM [%] | inhibition at 1 µM [%] |
| --- | --- | --- | --- |
| Cc1onc(-c2ccc(OCC(=O)NCC3CCOCC3)cc2)c1-c1ccccc1 [Example 2, 2-(4-(5-methyl-4-phenylisoxazol-3-yl)phenoxy)-N-((tetrahydro-2H-pyran-4-yl)methyl)acetamide] | 9 | 33 |  |
| Cc1c(-c2ccc(OCC(=O)NCC3CCOCC3)cc2)noc1-c1ccc(Cl)cc1 [Example 4, 2-(4-(5-(4-chlorophenyl)-4-methylisoxazol-3-yl)phenoxy)-N-((tetrahydro-2H-pyran-4-yl)methyl)acetamide] | 36 | 29 |  |
| Cc1c(-c2ccc(OCC(=O)NCC3CCOCC3)cc2)noc1-c1ccc(C(F)(F)F)cc1 [Example 5, 2-(4-(4-methyl-5-(4-(trifluoromethyl)phenyl)isoxazol-3-yl)phenoxy)-N-((tetrahydro-2H-pyran-4-yl)methyl)acetamide] | 67 | 71 | 49 |
| Cc1ccc(-c2onc(-c3ccc(OCC(=O)NCC4CCOCC4)cc3)c2C)cc1 [Example 6, 2-(4-(4-methyl-5-(p-tolyl)isoxazol-3-yl)phenoxy)-N-((tetrahydro-2H-pyran-4-yl)methyl)acetamide] | 17 | 34 | 12 |
| Cc1c(-c2ccc(OCC(=O)NCC3CCOCC3)cc2)nsc1-c1ccccc1 [Example 7, 2-(4-(4-methyl-5-phenylisothiazol-3-yl)phenoxy)-N-((tetrahydro-2H-pyran-4-yl)methyl)acetamide] | 22 | 55 | 22 |
| COc1cc(-c2ccc(OCC(=O)NCC3CCOCC3)cc2)nn1-c1ccc(F)cc1 [Example 9, 2-(4-(1-(4-fluorophenyl)-5-methoxy-1H-pyrazol-3-yl)phenoxy)-N-((tetrahydro-2H-pyran-4-yl)methyl)acetamide] | 41 | 64 | 37 |
| COc1cc(-c2ccc(OCC(=O)NCC3CCOCC3)cc2)nn1-c1ccccc1 [Example 10, 2-(4-(5-methoxy-1-phenyl-1H-pyrazol-3-yl)phenoxy)-N-((tetrahydro-2H-pyran-4-yl)methyl)acetamide] | 40 | 56 | 33 |
| Cc1nc(-c2ccccc2)sc1-c1ccc(OCC(=O)NCC2CCOCC2)cc1 [Example 11, 2-(4-(4-methyl-2-phenylthiazol-5-yl)phenoxy)-N-((tetrahydro-2H-pyran-4-yl)methyl)acetamide] | 44 | 53 | 30 |
| Cc1nc(-c2ccc(C(F)(F)F)cc2)sc1-c1ccc(OCC(=O)NCC2CCOCC2)cc1 [Example 12, 2-(4-(4-methyl-2-(4-(trifluoromethyl)phenyl)thiazol-5-yl)phenoxy)-N-((tetrahydro-2H-pyran-4-yl)methyl)acetamide] | 33 | 36 |  |
| Cc1nc(-c2ccc(F)cc2)sc1-c1ccc(OCC(=O)NCC2CCOCC2)cc1 [Example 13, 2-(4-(2-(4-fluorophenyl)-4-methylthiazol-5-yl)phenoxy)-N-((tetrahydro-2H-pyran-4-yl)methyl)acetamide] | 30 | 78 | 17 |
| Cc1oc(-c2cccnc2)nc1-c1ccc(OCC(=O)NCC2CCOCC2)cc1 [Example 24, 2-(4-(5-methyl-2-(pyridin-3-yl)oxazol-4-yl)phenoxy)-N-((tetrahydro-2H-pyran-4-yl)methyl)acetamide] | 76 | 35 | 49 |
| O=C(COc1ccc(-c2nnc(-c3ccc(C(F)(F)F)cc3)o2)cc1)NCC1CCOCC1 [Example 31, N-((tetrahydro-2H-pyran-4-yl)methyl)-2-(4-(5-(4-(trifluoromethyl)phenyl)-1,3,4-oxadiazol-2-yl)phenoxy)acetamide] | 34 | 36 | 25 |
| COc1ccc(-c2nnc(-c3ccc(OCC(=O)NCC4CCOCC4)cc3)o2)cc1 [Example 32, 2-(4-(5-(4-methoxyphenyl)-1,3,4-oxadiazol-2-yl)phenoxy)-N-((tetrahydro-2H-pyran-4-yl)methyl)acetamide] | 23 | 30 | 13 |
| COc1ccc(N2CC(c3ccc(OCC(=O)NCC4CCOCC4)cc3)OC2=O)cc1 (stereo not drawn) [Example 36, 2-(4-(3-(4-methoxyphenyl)-2-oxooxazolidin-5-yl)phenoxy)-N-((tetrahydro-2H-pyran-4-yl)methyl)acetamide] | 24 | 61 | 47 |
| O=C(COc1ccc(-n2cc(-c3ccccc3)nn2)cc1)NCC1CCOCC1 [Example 37, 2-(4-(4-phenyl-1H-1,2,3-triazol-1-yl)phenoxy)-N-((tetrahydro-2H-pyran-4-yl)methyl)acetamide] | 58 | 78 | 25 |
| COc1cc(-c2ccc(OCC(=O)NCC3CCOCC3)cc2)nn1Cc1ccc(C(F)(F)F)cc1 [Example 38, 2-(4-(5-methoxy-1-(4-(trifluoromethyl)benzyl)-1H-pyrazol-3-yl)phenoxy)-N-((tetrahydro-2H-pyran-4-yl)methyl)acetamide] | 39 | 59 | 27 |
| Cc1nc(-c2ccc(OCC(=O)NCC3CCOCC3)cc2)oc1C [Example 39, 2-(4-(4,5-dimethyloxazol-2-yl)phenoxy)-N-((tetrahydro-2H-pyran-4-yl)methyl)acetamide] | 9 | 15 |  |

Now from value to compound:

| inhibition at 10 µM [%] | inhibition at 100 µM [%] | inhibition at 1 µM [%] | Structure (SMILES) |
| --- | --- | --- | --- |
| 42 | 68 |  | Cc1c(-c2ccc(OCC(=O)NCC3CCOCC3)cc2)noc1-c1ccccc1 [Example 1, 2-(4-(4-Methyl-5-phenylisoxazol-3-yl)phenoxy)-N-((tetrahydro-2H-pyran-4-yl)methyl)acetamide] |
| 35 | 65 | 33 | Cc1c(-c2ccc(OCC(=O)NCC3CCOCC3)cc2)noc1-c1ccc(F)cc1 [Example 3, 2-(4-(5-(4-fluorophenyl)-4-methylisoxazol-3-yl)phenoxy)-N-((tetrahydro-2H-pyran-4-yl)methyl)acetamide] |
| 73 | 58 |  | COc1cc(-c2ccc(OCC(=O)NCC3CCOCC3)cc2)nn1-c1ccc(C(F)(F)F)cc1 [Example 8, 2-(4-(5-methoxy-1-(4-(trifluoromethyl)phenyl)-1H-pyrazol-3-yl)phenoxy)-N-((tetrahydro-2H-pyran-4-yl)methyl)acetamide] |
| 38 | 63 | 40 | Cc1oc(-c2ccccc2)nc1-c1ccc(OCC(=O)NCC2CCOCC2)cc1 [Example 17, 2-(4-(5-methyl-2-phenyloxazol-4-yl)phenoxy)-N-((tetrahydro-2H-pyran-4-yl)methyl)acetamide] |
| 53 |  |  | Cc1oc(-c2ccc(C(F)(F)F)cc2)nc1-c1ccc(OCC(=O)NCC2CCOCC2)cc1 [Example 18, 2-(4-(5-methyl-2-(4-(trifluoromethyl)phenyl)oxazol-4-yl)phenoxy)-N-((tetrahydro-2H-pyran-4-yl)methyl)acetamide] |
| 24 | 50 |  | Cc1oc(-c2ccc(F)cc2)nc1-c1ccc(OCC(=O)NCC2CCOCC2)cc1 [Example 19, 2-(4-(2-(4-fluorophenyl)-5-methyloxazol-4-yl)phenoxy)-N-((tetrahydro-2H-pyran-4-yl)methyl)acetamide] |
| 30 | 54 | 27 | Cc1ccc(-c2nc(-c3ccc(OCC(=O)NCC4CCOCC4)cc3)c(C)o2)cc1 [Example 22, 2-(4-(5-methyl-2-(p-tolyl)oxazol-4-yl)phenoxy)-N-((tetrahydro-2H-pyran-4-yl)methyl)acetamide] |
| 50 | 64 | 37 | O=C(COc1ccc(-c2noc(-c3ccc(C(F)(F)F)cc3)n2)cc1)NCC1CCOCC1 [Example 25, N-((tetrahydro-2H-pyran-4-yl)methyl)-2-(4-(5-(4-(trifluoromethyl)phenyl)-1,2,4-oxadiazol-3-yl)phenoxy)acetamide] |
| 20 | 32 | 19 | O=C(COc1ccc(-c2nnc(-c3ccc(F)cc3)o2)cc1)NCC1CCOCC1 [Example 30, 2-(4-(5-(4-fluorophenyl)-1,3,4-oxadiazol-2-yl)phenoxy)-N-((tetrahydro-2H-pyran-4-yl)methyl)acetamide] |
| 54 | 61 | 14 | O=C(COc1ccc(C2CN(c3ccc(F)cc3)C(=O)O2)cc1)NCC1CCOCC1 (stereo not drawn) [Example 35, 2-(4-(3-(4-fluorophenyl)-2-oxooxazolidin-5-yl)phenoxy)-N-((tetrahydro-2H-pyran-4-yl)methyl)acetamide] |
